Consider five compounds from article PMC4339527 (Bioorganic & medicinal chemistry, 2015).

Where two headings read alike, the source gives them in different places.

The target in assay [1] is T1, P. aeruginosa T3SS (Pseudomonas aeruginosa, UniProt P95434). Description: T3SS-mediated secretion assay. The following applies: for potency increase in the β-lactamase secretion assay over the unoptimized compound: 37a vs 34o, 37b vs 34r. Format: cell-based.
Assay [2] addresses T1, P. aeruginosa T3SS. Format: cell-based. The following applies: for IC50: read-out: translocation IC50, CHO cells + P. aeruginosa PA99U, LDH release.
Assay [3] has as its system P. aeruginosa T3SS. Particulars: read-out: translocation IC50; activity in translocation assays; cited from earlier work.

For orientation: IC50 means the point on the concentration scale where inhibition reaches its midpoint. With “N-(Benzothiophene-5-yl)-2-(2,4-dichlorophenoxy)propanamide [Compound 34o]”, the values for the IC50 in assay [1] (read-out: secretion IC50) and in assay [2] were 6 ± 1.6 µM and 5.3 ± 3.7 µM, respectively.

With `CC[C@@H](Oc1ncc(Cl)cc1Cl)C(=O)NCc1ccc2[nH]ccc2c1` [Compound 37b, (R)-N-[(Indol-5-yl)methyl]-2-[(3,5-dichloropyridin-2-yl)oxy]butanamide], the “potency increase in the β-lactamase secretion assay over the unoptimized compound” value in assay [1] worked out at 2.6 fold. The “improvement in the translocation assay over the unoptimized compound” value in assay [2] (37b vs 34r) was found to be 2.5 fold.

“N-[(Benzimidazol-5-ylmethyl])-2-(2,4-dichlorophenoxy)propanamide [Compound 34q]”: the IC50 in assay [2] was 33 ± 8 µM.

Turning to `O=C(NN=Cc1cc(Br)cc(Br)c1O)c1ccc([N+](=O)[O-])cc1` [INP-007], the IC50 in assay [3] was 0.8 µM.

On to `CC[C@@H](Oc1ncc(Cl)cc1Cl)C(=O)NCc1ccc2sccc2c1` [Compound 37a, (R)-N-[(Benzothiophene-5-yl)methyl]-2-[(3,5-dichloropyridin-2-yl)oxy]butanamide], for which, in assay [1], the “potency increase in the β-lactamase secretion assay over the unoptimized compound” value was determined as 6 fold.
